Experimental data reported in patent US9580390B2, “Indazole compounds as kinase inhibitors and method of treating cancer with same” (University Health Network, priority 2011, dated 2017).

How the values were obtained:
[1] = tested on: ovarian cancer cells (PA-1); assay: Cancer cell line growth inhibition (SRB assay); assay type: cell-based; details: Homo sapiens, PA-1; read-out: Cancer Cell Line GI50 Range PA-1
human TTK = biological target: T1, human TTK (Homo sapiens, UniProt P33981); assay: TTK inhibition assay (indirect ELISA); assay type: biochemical; details: read-out: TTK IC50 Range
T1 construct: amino terminal GST fusion of full length human TTK; purchased Invitrogen
T1 sequence (P33981 1-857): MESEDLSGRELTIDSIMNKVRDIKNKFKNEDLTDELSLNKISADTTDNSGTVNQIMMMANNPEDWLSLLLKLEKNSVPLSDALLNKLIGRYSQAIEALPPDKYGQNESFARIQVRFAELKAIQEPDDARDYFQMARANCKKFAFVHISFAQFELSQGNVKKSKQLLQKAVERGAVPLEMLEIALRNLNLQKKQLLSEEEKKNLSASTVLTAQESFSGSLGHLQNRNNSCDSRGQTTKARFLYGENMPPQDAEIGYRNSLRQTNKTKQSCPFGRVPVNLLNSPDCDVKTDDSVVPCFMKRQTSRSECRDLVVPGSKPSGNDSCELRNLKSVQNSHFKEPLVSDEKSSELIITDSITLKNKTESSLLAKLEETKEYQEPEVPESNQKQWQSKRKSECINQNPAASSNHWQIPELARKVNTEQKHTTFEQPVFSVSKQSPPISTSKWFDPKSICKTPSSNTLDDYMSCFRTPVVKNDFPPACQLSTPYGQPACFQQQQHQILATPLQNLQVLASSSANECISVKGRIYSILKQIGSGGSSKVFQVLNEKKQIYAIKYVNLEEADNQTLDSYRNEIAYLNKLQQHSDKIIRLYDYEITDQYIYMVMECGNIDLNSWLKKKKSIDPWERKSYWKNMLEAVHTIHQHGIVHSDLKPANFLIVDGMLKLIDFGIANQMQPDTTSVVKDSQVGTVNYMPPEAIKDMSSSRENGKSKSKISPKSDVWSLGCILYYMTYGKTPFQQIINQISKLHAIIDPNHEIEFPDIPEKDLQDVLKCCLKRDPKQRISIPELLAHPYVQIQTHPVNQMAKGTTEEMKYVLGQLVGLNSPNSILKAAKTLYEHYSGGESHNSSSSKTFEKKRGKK

[2] = tested on: colon cancer cells (HCT116); assay: Cancer cell line growth inhibition (SRB assay); assay type: cell-based; details: Homo sapiens, HCT-116; read-out: Cancer Cell Line GI50 Range HCT116
Breast cancer cells = assay: Cancer cell line growth inhibition (SRB assay); assay type: cell-based; details: Homo sapiens; MDA-MB-468; read-out: Cancer Cell Line GI50 Range MDA-MB-468

| Structure (SMILES) | GI50 [1] [nM] | IC50 (human TTK) [nM] | GI50 [2] [nM] | GI50 (Breast cancer cells) [nM] |
| --- | --- | --- | --- | --- |
| CCC(CC)(CNC(=O)c1ccc2[nH]nc(-c3ccc(N4CCN(C)CC4)cc3)c2c1)c1ccccc1 [Example A441, N-(2-ethyl-2-phenylbutyl)-3-(4-(4-methylpiperazin-1-yl)phenyl)-1H-indazole-5-carboxamide] | 100 to 500 | < 100 | 100 to 500 | 100 to 500 |
| CN1CCC(Oc2ccc(-c3n[nH]c4ccc(C(=O)NCC5(OC6CCCC6)CCCCC5)cc34)cc2)CC1 [Example A442, N-((1-(cyclopentyloxy)cyclohexyl)methyl)-3-(4-((1-methylpiperidin-4-yl)oxy)phenyl)-1H-indazole-5-carboxamide] | > 500 | < 100 | > 500 | > 500 |
| CCC(CC)(CNC(=O)c1ccc2[nH]nc(-c3ccc(OC4CCN(C[C@@H](C)O)CC4)cc3)c2c1)c1ccccc1 [Example A443, (R)-N-(2-ethyl-2-phenylbutyl)-3-(4-((1-(2-hydroxypropyl)piperidin-4-yl)oxy)phenyl)-1H-indazole-5-carboxamide] | 100 to 500 | < 100 | 100 to 500 | > 500 |
| C[C@@H](O)CN1CCC(Oc2ccc(-c3n[nH]c4ccc(C(=O)NCC5(OC6CCCC6)CCCCC5)cc34)cc2)CC1 [Example A444, (R)-N-((1-(cyclopentyloxy)cyclohexyl)methyl)-3-(4-((1-(2-hydroxypropyl)piperidin-4-yl)oxy)phenyl)-1H-indazole-5-carboxamide] | > 500 | < 100 | > 500 | > 500 |
| O=C(NCC1(N2CCOCC2)CCC(F)(F)CC1)c1ccc2[nH]nc(-c3ccc(N4CCOCC4)cc3)c2c1 [Example A460, N-((4,4-difluoro-1-morpholinocyclohexyl)methyl)-3-(4-morpholinophenyl)-1H-indazole-5-carboxamide] | > 500 | < 100 | > 500 | > 500 |
| O=C(NCC1(c2cccnc2)CC1)c1ccc2[nH]nc(-c3ccc(N4CCOCC4)cc3)c2c1 [Example A461, 3-(4-morpholinophenyl)-N-((1-(pyridin-3-yl)cyclopropyl)methyl)-1H-indazole-5-carboxamide] | > 500 | < 100 | > 500 | > 500 |
| CCC(CC)(CNC(=O)c1ccc2[nH]nc(-c3ccc(N4CCOCC4)cc3)c2c1)N1CCOCC1 [Example A463, N-(2-ethyl-2-morpholinobutyl)-3-(4-morpholinophenyl)-1H-indazole-5-carboxamide] | < 100 | < 100 | 100 to 500 | 100 to 500 |
| O=C(NCC1(c2ccncc2)CC1)c1ccc2[nH]nc(-c3ccc(N4CCOCC4)cc3)c2c1 [Example A464, 3-(4-morpholinophenyl)-N-((1-(pyridin-4-yl)cyclopropyl)methyl)-1H-indazole-5-carboxamide] | 100 to 500 | 100 to 500 | > 500 | > 500 |
| CCC(CC)(CNC(=O)c1ccc2[nH]nc(-c3ccc(N4CCN(C)CC4)cc3)c2c1)N1CCOCC1 [Example A465, N-(2-ethyl-2-morpholinobutyl)-3-(4-(4-methylpiperazin-1-yl)phenyl)-1H-indazole-5-carboxamide] | < 100 | < 100 | 100 to 500 | 100 to 500 |
| CN1CCN(C2(CNC(=O)c3ccc4[nH]nc(-c5ccc(N6CCOCC6)cc5)c4c3)CCCC2)CC1 [Example A467, N-((1-(4-methylpiperazin-1-yl)cyclopentyl)methyl)-3-(4-morpholinophenyl)-1H-indazole-5-carboxamide] | > 500 | 100 to 500 | > 500 | > 500 |
| CN1CCC(CNC(=O)c2ccc3[nH]nc(-c4ccc(N5[C@@H]6CC[C@H]5COC6)cc4)c3c2)(c2ccccc2)CC1 [Example A468, 3-(4-((1R,5S)-3-oxa-8-azabicyclo[3.2.1]octan-8-yl)phenyl)-N-((1-methyl-4-phenylpiperidin-4-yl)methyl)-1H-indazole-5-carboxamide] | 100 to 500 | < 100 | 100 to 500 | > 500 |
| CN1CCC(CO)(Cc2ccc(-c3n[nH]c4ccc(C(=O)NCC5(N6CCOCC6)CCCCC5)cc34)cc2)CC1 [Example A486, 3-(4-((4-(hydroxylmethyl)-1-methylpiperidin-4-yl)methyl)phenyl)-N-((1-morpholinocyclohexyl)methyl)-1H-indazole-5-carboxamide] | 100 to 500 | < 100 | 100 to 500 | > 500 |
| CN1[C@@H]2CC[C@H]1C[C@@H](Oc1ccc(-c3n[nH]c4ccc(C(=O)NCC5(c6ccccn6)CC5)cc34)cc1)C2 [Example A488] | > 500 | < 100 | > 500 | > 500 |
| CC1(C)CC(=O)c2cc(-c3n[nH]c4ccc(C(=O)NCC5(N6CCOCC6)CCCCC5)cc34)ccc2O1 [Example A490, 3-(2,2-dimethyl-4-oxochroman-6-yl)-N-((1-morpholinocyclohexyl)methyl)-1H-indazole-5-carboxamide] | > 500 | 100 to 500 | > 500 | > 500 |
| Cc1cc(=O)n(C)c2ccc(-c3n[nH]c4ccc(C(=O)NCC5(N6CCOCC6)CCCCC5)cc34)cc12 [Example A491, 3-(1,4-dimethyl-2-oxo-1,2-dihydroquinolin-6-yl)-N-((1-morpholinocyclohexyl)methyl)-1H-indazole-5-carboxamide] | > 500 | < 100 | > 500 | > 500 |
| O=C(NCC1(N2CCOCC2)CCOCC1)c1ccc2[nH]nc(-c3ccc(N4[C@@H]5CC[C@H]4C[C@@H](O)C5)cc3)c2c1 [Example A493, 3-(4-((1R,3R,5S)-3-hydroxy-8-azabicyclo[3.2.1]octan-8-yl)phenyl)-N-((4-morpholinotetrahydro-2H-pyran-4-yl)methyl)-1H-indazoIe-5-carboxamide] | 100 to 500 | < 100 | 100 to 500 | > 500 |
| O=C(NCC1(N2CCOCC2)CCCOC1)c1ccc2[nH]nc(-c3ccc(N4C5CCC4CC(O)C5)cc3)c2c1 [Example A495, 3-(4-((1R,3R.5S)-3-hydroxy-8-azabicyclo[3.2.1]octan-8-yl)phenyl)-N-((3-morpholinotetrahydro-2H-pyran-3-yl)methyl)-1H-indazole-5-carboxamide] | < 100 | < 100 | 100 to 500 | 100 to 500 |
| O=C(NCC1(c2ccccc2)CCOCC1)c1ccc2[nH]nc(-c3ccc(N4CC(N5CCOCC5)C4)cc3)c2c1 [Example A499, 3-(4-(3-morpholinoazetidin-1-yl)phenyl)-N-((4-phenyltetrahydro-2H-pyran-4-yl)methyl)-1H-indazole-5-carboxamide] | 100 to 500 | < 100 | 100 to 500 | 100 to 500 |
| O=C(NCC1(N2CCOCC2)CCCCC1)c1ccc2[nH]nc(-c3ccc(O[C@H]4C[C@H]5CC[C@@H](C4)N5C4COC4)cc3)c2c1 [Example A507, N-((1-morpholinocyclohexyl)methyl)-3-(4-(((1R,3R,5S)-8-(oxetan-3-yl)-8-azabicyclo[3.2.1]octan-3-yl)oxy)phenyl)-1H-indazole-5-carboxamide] | 100 to 500 | < 100 | 100 to 500 | 100 to 500 |
| O=C(NCC1(CN2CCOCC2)CCCCC1)c1ccc2[nH]nc(-c3ccc(N4CCOCC4)cc3)c2c1 [Example A509, N-((1-(morpholinomethyl)cyclohexyl)methyl)-3-(4-morpholinophenyl)-1H-indazole-5-carboxamide] | > 500 | < 100 | > 500 | > 500 |
| O=C(NCC1(CN2CCOCC2)CCCCC1)c1ccc2[nH]nc(-c3ccc(N4[C@@H]5CC[C@H]4COC5)cc3)c2c1 [Example A510, 3-(4-((1R,5S)-3-oxa-8-azabicyclo[3.2.1]octan-8-yl)phenyl)-N-((1-(morpholinomethyl)cyclohexyl)methyl)-1H-indazole-5-carboxamide] | 100 to 500 | < 100 | 100 to 500 | 100 to 500 |
| CC(C)C[C@H](NC(=O)c1ccc2[nH]nc(-c3ccc(OC4CCN(C5COC5)CC4)cc3)c2c1)c1ccccc1Cl [Example A511, (S)-N-(1-(2-chlorophenyl)-3-methylbutyl)-3-(4-((1-(oxetan-3-yl)piperidin-4-yl)oxy)phenyl)-1H-indazole-5-carboxamide] | < 100 | < 100 | 100 to 500 | 100 to 500 |
